# Tests used:
# [1] = tested on: melanoma cells (SK-MEL-5); test: In vitro cytotoxicity, CellTiter-Glo 96 h, SK-MEL-5; details: Homo sapiens, SK-MEL-5, read-out: Cytotoxic potency as free drug, IC50, SK-MEL-5
# [2] = tested on: Burkitt's lymphoma cells (Ramos); test: In vitro cytotoxicity, CellTiter-Glo 96 h, Ramos; details: Homo sapiens, read-out: Cytotoxic potency as free drug, IC50, Ramos
# Description: (§1) In vitro potency was assessed on multiple cancer cell lines. All cell lines were authenticated by STR profiling at IDEXX Bioresearch and cultured for no more than 2 months after resuscitation. Cells cultured in log-phase growth were seeded for 24 hours in 96-well plates containing 150 μl RPMI 1640 supplemented with 20% FBS. Serial dilutions of antibody-drug conjugates in cell culture media were prepared at 4× working concentrations, and 50 μl of each dilution was added to the 96-well plates. Following addition of test articles, cells were incubated with test articles for 4 days at 37° C. After 96 hours, growth inhibition was assessed by CellTiter-Glo® (Promega, Madison, Wis.) and luminescence was measured on a plate reader.
# (§2) Cell viability was determined by CellTiter-Glo staining after 96 h exposure to ADC.
# [3] = tested on: multiple drug resistant acute promyelocytic leukemia cells (HL-60/RV); test: In vitro cytotoxicity, CellTiter-Glo 96 h, HL60/RV; details: Homo sapiens, HL-60, read-out: Cytotoxic potency (IC50 class), HL60/RV
# Description: as §1, §2
# [4] = tested on: pancreatic cancer cells (BxPC3); test: In vitro cytotoxicity, CellTiter-Glo 96 h, BxPC3; details: Homo sapiens, BXPC-3, read-out: Cytotoxic potency (IC50 class), BxPC3
# Description: as §1, §2
# [5] = tested on: Hodgkin's lymphoma cells (L540cy); test: In vitro cytotoxicity, CellTiter-Glo 96 h, L540cy; details: read-out: Cytotoxic potency (IC50 class), L540cy
# Description: as §1, §2
# [6] = tested on: multiple myeloma cells (MM.1R); test: In vitro cytotoxicity, CellTiter-Glo 96 h, MM.1R; details: read-out: Cytotoxic potency (IC50 class), MM.1R
# [7] = tested on: B-lymphocyte cancer cells (SU-DHL-4); test: In vitro cytotoxicity, CellTiter-Glo 96 h, SU-DHL-4; details: Homo sapiens, SU-DHL-4, read-out: Cytotoxic potency as free drug, IC50, SU-DHL-4
# Description: as §1
# (§3) Cell viability was determined by CellTiter-Glo staining after 96 h exposure to ADC. […] Ag1 is an antibody targeting a ubiquitous and readily internalizable antigen on cancer cells, Ag2 is cAC10 antibody targeting CD30(+) cancer cells, Ag3 is h1F6 antibody targeting CD70(+) cancer cells, Ag4 is hMEM102 antibody targeting CD48(+) cancer cells, Ag5 is h20F3 antibody targeting NTB-A expressing cancer cells, and h00 is a non-binding control antibody.
# [8] = tested on: acute promyelocytic leukemia cells (HL-60); test: In vitro cytotoxicity, CellTiter-Glo 96 h, HL-60; details: Homo sapiens, HL-60, read-out: Cytotoxic potency (IC50 class), HL-60
# Description: as §1, §3
# [9] = tested on: B-lymphocyte cancer cells (U266); test: In vitro cytotoxicity, CellTiter-Glo 96 h, U266; details: Homo sapiens, U-266, read-out: Cytotoxic potency as free drug, IC50, U266
# Description: as §1, §3
# [10] = tested on: acute myeloid leukemia cells (MOLM13); test: In vitro cytotoxicity, CellTiter-Glo 96 h, MOLM13; details: Homo sapiens, MOLM-13, read-out: Cytotoxic potency as free drug, IC50, MOLM13
# [11] = tested on: renal carcinoma cells (786-O); test: In vitro cytotoxicity, CellTiter-Glo 96 h, 786-O; details: Homo sapiens, 786-0, read-out: Cytotoxic potency (IC50 class), 786-O
SMILES,IC50 [1],IC50 [2],IC50 [3],IC50 [4],IC50 [5],IC50 [6],IC50 [7],IC50 [8],IC50 [9],IC50 [10],IC50 [11]
CC[C@@]1(O)C(=O)OCc2c1cc1n(c2=O)Cc2c-1nc1cc3c(cc1c2CNCC(C)C)OCO3 [Compound 5i],1 to 10 nM,1 to 10 nM,1 to 10 nM,1 to 10 nM,1 to 10 nM,1 to 10 nM,1 to 10 nM,10 to 100 nM,1 to 10 nM,1 to 10 nM,1 to 10 nM
CC[C@@]1(O)C(=O)OCc2c1cc1n(c2=O)Cc2c-1nc1cc3c(cc1c2CNCc1ccccc1)OCO3 [Compound 5j],1 to 10 nM,1 to 10 nM,1 to 10 nM,1 to 10 nM,1 to 10 nM,1 to 10 nM,1 to 10 nM,10 to 100 nM,1 to 10 nM,1 to 10 nM,1 to 10 nM
CC[C@@]1(O)C(=O)OCc2c1cc1n(c2=O)Cc2c-1nc1cc3c(cc1c2CNCCNC(C)C)OCO3 [Compound 5m],100 to 1000 nM,1 to 10 nM,,100 to 1000 nM,10 to 100 nM,10 to 100 nM,10 to 100 nM,100 to 1000 nM,10 to 100 nM,10 to 100 nM,10 to 100 nM
CC[C@@]1(O)C(=O)OCc2c1cc1n(c2=O)Cc2c-1nc1cc3c(cc1c2-c1ccc(F)cc1)OCO3 [Compound 6],1 to 10 nM,0.1 to 1 nM,0.1 to 1 nM,1 to 10 nM,0.1 to 1 nM,1 to 10 nM,0.1 to 1 nM,,1 to 10 nM,0.1 to 1 nM,1 to 10 nM
CCC(C)c1c2c(nc3cc4c(cc13)OCO4)-c1cc3c(c(=O)n1C2)COC(=O)[C@]3(O)CC (some centres unmarked) [Compound 6b],1 to 10 nM,1 to 10 nM,1 to 10 nM,1 to 10 nM,1 to 10 nM,1 to 10 nM,1 to 10 nM,,1 to 10 nM,1 to 10 nM,1 to 10 nM
CC[C@@]1(O)C(=O)OCc2c1cc1n(c2=O)Cc2c-1nc1cc3c(cc1c2C(C)C)OCO3 [Compound 6c],1 to 10 nM,0.1 to 1 nM,1 to 10 nM,1 to 10 nM,1 to 10 nM,1 to 10 nM,0.1 to 1 nM,,1 to 10 nM,1 to 10 nM,1 to 10 nM
